Tests used:
[1] = physical stability (t½ induction) at 40° C./75% RH; type: physicochemical
[2] = glass temperature of the compound; type: physicochemical
water solubility (glass) = type: physicochemical
[3] = hydrolytic stability (t½) at 20° C.; type: physicochemical; details: buffer
log pow = type: physicochemical; details: octanol/water

- physical stability (t½ induction) [1]: >1176 h
- glass temperature [2]: 110 °C
- water solubility (glass) (water solubility (glass)): 9.5 ppm
- half-life ([3]; pH 4): 12 h
- half-life ([3]; pH 7): 14 h
- half-life ([3]; pH 9): < 1 h
- logP (log pow): 2.9
- melting point: 156 °C
Compound: CC(=O)OC1C(O[C@@H]2OC(COC(=O)C3O[C@H](OC(C)=O)C(OC(C)=O)C(OC(C)=O)[C@@H]3OC(C)=O)[C@@H](OC(C)=O)C(OC(C)=O)C2OC(C)=O)OC(COC(=O)C2O[C@H](OC(C)=O)C(OC(C)=O)C(OC(C)=O)[C@H]2OC(C)=O)[C@@H](OC(C)=O)C1OC(C)=O (stereo partly drawn) [Example 1, di(β-tetraacetylglucuronyl)hexaacetyltrehalose]

From patent US7220731B2, “Derivatised carbohydrates and their use in solid delivery systems” (Elan Drug Delivery Limited, priority 2000, dated 2007)
